Blank lines part the entries; values can stand above or below the compound they belong to. Active and inactive are the calls of the source.
Legend:
[1] = target: Tyrosine-protein phosphatase non-receptor type 7 (Homo sapiens, UniProt P35236); experiment: SAR analysis of chemical inhibitors of HePTP using a Fluorescent assay - Set 2. [Related pubchem assays (depositor defined):AID1059, AID1077, AID1661, AID2085, AID521]; type: functional
[2] = target: Dual specificity protein phosphatase 3 (Homo sapiens, UniProt P51452); experiment: SAR VHR1 Fluorescent Assay for In Vitro dose response studies Set 2. [Related pubchem assays (depositor defined):AID1654, AID1661, AID1878]; type: functional
Chain of Dual specificity protein phosphatase 3 (P51452 whole entry): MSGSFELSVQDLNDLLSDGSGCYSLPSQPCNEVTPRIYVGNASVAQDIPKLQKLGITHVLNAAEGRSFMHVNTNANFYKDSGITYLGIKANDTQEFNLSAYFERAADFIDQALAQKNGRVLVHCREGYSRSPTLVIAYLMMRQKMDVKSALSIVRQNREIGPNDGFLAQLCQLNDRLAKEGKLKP

[3] = Trypanosoma cruzi growth suppression in host cells – NIH3T3 host cells, beta-gal luminescence, confirmation (AID 2044); type: functional, cell-based;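 further: intracellular parasites grown in NIH/3T3 mouse fibroblasts as host cells; luminescent beta-galactosidase reporter signal from transgenic T. cruzi replicating inside host cells; inhibitors lower the luminescence signal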
[4] = NIH3T3 cell viability loss – ATP luminescence, mouse fibroblasts, counter-screen, dose response (AID 2010); type: functional, cell-based;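 further: cells exposed to compound for about 90 hours before reading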
[5] = target: T1, Type-1 angiotensin II receptor (Homo sapiens, UniProt P30556); experiment: agonist activity at AGTR1 – cell-based, uHTS hits, selectivity assay for APJ receptor agonist project, dose response (AID 488865); type: functional;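 further: beta-arrestin recruitment to AT1 measured by enzyme fragment complementation luminescence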
T1 sequence (P30556 whole entry): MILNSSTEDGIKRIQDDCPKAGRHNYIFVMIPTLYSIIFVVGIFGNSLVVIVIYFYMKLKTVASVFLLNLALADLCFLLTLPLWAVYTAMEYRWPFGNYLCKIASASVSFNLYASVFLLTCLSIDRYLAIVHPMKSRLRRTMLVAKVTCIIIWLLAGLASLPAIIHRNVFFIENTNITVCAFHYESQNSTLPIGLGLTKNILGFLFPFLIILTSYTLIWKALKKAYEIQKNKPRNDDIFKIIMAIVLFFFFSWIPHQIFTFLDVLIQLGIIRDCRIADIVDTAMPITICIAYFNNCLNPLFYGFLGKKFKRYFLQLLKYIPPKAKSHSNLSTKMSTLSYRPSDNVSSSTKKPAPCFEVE

[6] = target: T2, Ubiquitin-conjugating enzyme E2 N (Homo sapiens, UniProt P61088); type: functional
T2 sequence (P61088 whole entry): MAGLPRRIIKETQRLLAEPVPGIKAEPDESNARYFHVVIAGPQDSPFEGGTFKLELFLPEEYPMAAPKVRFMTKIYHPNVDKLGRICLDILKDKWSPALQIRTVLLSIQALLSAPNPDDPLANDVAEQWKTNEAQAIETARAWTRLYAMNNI

Bcl-2-related protein A1 = target: T3, Bcl-2-related protein A1 (Mus musculus, UniProt Q07440); type: functional;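 further: confirmatory dose–response counterscreen on Bfl-1, used to check hits from a UBC13 polyubiquitin inhibitor campaign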
T3 sequence (Q07440 whole entry): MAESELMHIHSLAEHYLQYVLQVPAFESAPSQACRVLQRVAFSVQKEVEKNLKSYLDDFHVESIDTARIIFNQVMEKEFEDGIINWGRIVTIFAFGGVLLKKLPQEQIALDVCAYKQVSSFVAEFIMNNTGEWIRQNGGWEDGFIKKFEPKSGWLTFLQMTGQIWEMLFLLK

[7] = target: T2, Ubiquitin-conjugating enzyme E2 N; type: functional; remark: listed apart in the source

Chain of Tyrosine-protein phosphatase non-receptor type 7 (P35236 whole entry): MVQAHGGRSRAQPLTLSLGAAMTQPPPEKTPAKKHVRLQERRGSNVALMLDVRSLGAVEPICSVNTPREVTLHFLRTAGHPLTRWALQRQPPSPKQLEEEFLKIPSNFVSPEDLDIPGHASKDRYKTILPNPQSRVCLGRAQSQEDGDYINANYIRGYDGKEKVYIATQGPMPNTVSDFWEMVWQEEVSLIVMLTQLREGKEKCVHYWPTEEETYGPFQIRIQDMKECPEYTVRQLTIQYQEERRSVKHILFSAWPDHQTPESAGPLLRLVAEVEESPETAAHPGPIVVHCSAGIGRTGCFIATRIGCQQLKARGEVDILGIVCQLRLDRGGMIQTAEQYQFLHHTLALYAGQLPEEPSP

Compound: Nc1c(C(=O)N2CCOCC2)sc(=S)n1-c1ccccc1
IC50 [1]: > 100 µM (inactive)
IC50 [2]: 85.5 µM (active)

Compound: Clc1cccc(CN2CCc3c([nH]c4ccccc34)C2)c1
EC50 [3]: 3.73 µM (active)
EC50 [4]: > 60 µM (not active)
EC50 [5]: > 100 µM (inactive)

IC50 [6]: > 20 µM (inactive)
IC50 (Bcl-2-related protein A1): > 20 µM (inactive)
IC50 [7]: 14 µM (active)
Compound: COc1ccc(OC)c(/C=C/C(=O)OCC(=O)c2c(N)n(C)c(=O)n(C)c2=O)c1

From ChEMBL document CHEMBL1201862, “PubChem BioAssay data set” (2004)
